In patent US20060128757A1, “Pyridine derivatives useful as cyclooxygenase inhibitor” (Astellas Pharma Inc., priority 2001, published 2006):
Read-outs that look alike come from different tables or passages of the source.

Key:
[1] = system: stomachs (gastric lesions) of rats; experiment: Gastric ulcerogenic activity in rats; type: in vivo, Male Sprague-Dawley rats; conditions: oral, 5 h before autopsy, rats fasted 24 h
Description: Male Sprague-Dawley rats were used after a 24 h fast. Drugs were orally administered to groups of 10 rats 5 h before autopsy. The stomachs were macroscopically inspected and scored as follows: 0, no evidence of gastric lesions; 1, spotty submucosal hemorrhage or appearance of erosion; 3, widespread adherence of blood and large areas of submucosal hemorrhage or one to four small ulcers; 4, more than four small ulcers or one large ulcer; 5, numerous large ulcers.

COX-II = target: T1, COX-II (Homo sapiens, UniProt P35354); experiment: Whole blood assay for COX-II (LPS-induced PGE2 production); type: cell-based
T1 construct: lipopolysaccharide for 24 hr at 37° C. for induction of COX-II; endogenous in cells; host or cells: heparinized fresh human whole blood from volunteers, LPS-stimulated for 24 hr (PGE2 read-out)
T1 sequence (P35354 18-604): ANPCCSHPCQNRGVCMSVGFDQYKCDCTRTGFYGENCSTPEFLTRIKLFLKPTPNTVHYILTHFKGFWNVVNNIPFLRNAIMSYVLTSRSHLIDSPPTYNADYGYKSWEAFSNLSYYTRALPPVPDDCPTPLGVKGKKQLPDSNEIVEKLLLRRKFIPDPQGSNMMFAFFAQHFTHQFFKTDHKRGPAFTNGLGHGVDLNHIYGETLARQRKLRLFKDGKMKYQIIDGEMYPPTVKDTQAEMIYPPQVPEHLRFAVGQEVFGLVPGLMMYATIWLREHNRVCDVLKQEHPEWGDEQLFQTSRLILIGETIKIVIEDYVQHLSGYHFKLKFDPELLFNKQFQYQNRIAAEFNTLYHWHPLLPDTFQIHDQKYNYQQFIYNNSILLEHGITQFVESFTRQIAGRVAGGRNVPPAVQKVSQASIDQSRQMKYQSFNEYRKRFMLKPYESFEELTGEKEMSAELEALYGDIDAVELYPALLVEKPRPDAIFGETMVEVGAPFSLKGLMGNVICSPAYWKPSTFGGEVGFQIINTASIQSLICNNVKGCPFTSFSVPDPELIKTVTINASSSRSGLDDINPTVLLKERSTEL
Description: Fresh blood was collected in heparinized tubes by syringe from volunteers with consent. The subjects had no apparent inflammatory conditions and had not taken any medication for at least 7 days prior to blood collection. 500 μl aliquots of human whole blood were incubated with either 2 μl dimethyl sulfoxide vehicle or 2 μl of a test compound at final concentrations for 15 min at 37° C. This was followed by incubation of the blood with 10 μl of 5 mg/ml lipopolysaccharide for 24 hr at 37° C. for induction of COX-II. Appropriate PBS treatments (no LPS) were used as blanks. At the end of the incubation, the blood was centrifuged at 6000×g for 5 min at 4° C. to obtain plasma. A 100 μl aliquot of plasma was mixed with 400 μl methanol for protein precipitation. The supernatant was obtained by centrifuging at 6000×g for 5 min at 4° C. and was assayed for prostagrandin E2 (PGE2) using a radioimmunoassay kit after conversion of PGE2 to its methyl oximate derivative according to the manufacturer's procedure. For a test compound, the results were expressed as percent inhibition of PGE2 production relative to control incubations containing dimethyl sulfoxide vehicle. The data were analyzed by that a test compound at the indicated concentrations was changed log value and was applied simple linear regression. IC50 value was calculated by least squares method.

COX-I = target: T2, COX-I (Homo sapiens, UniProt P23219); experiment: Whole blood assay for COX-I (TXB2 production); type: cell-based
T2 construct: Fresh blood was collected by syringe without anticoagulants from volunteers with consent; endogenous in cells; host or cells: fresh human whole blood from volunteers, left to clot (TXB2 read-out)
Description: Fresh blood was collected by syringe without anticoagulants from volunteers with consent. The subjects had no apparent inflammatory conditions and had not taken any medication for at least 7 days prior to blood collection. 500 μl aliquots of human whole blood were immediately incubated with 2 μl of either dimethyl sulfoxide vehicle or a test compound at final concentrations for 1 hr at 37° C. to allow the blood to clot. Appropriate treatments (no incubation) were used as blanks. […] The blood was centrifuged at 6000×g for 5 min at 4° C. to obtain serum. A 100 μl aliquot of serum was mixed with 400 μl methanol for protein precipitation. The supernatant was obtained by centrifuging at 6000×g for 5 min at 4° C. and was assayed for TXB2 using an enzyme immunoassay kit according to the manufacturer's procedure. For a test compound, the results were expressed as percent inhibition of thromboxane B2 (TXB2) production relative to control incubations containing dimethyl sulfoxide vehicle. The data were analyzed by that a test compound at the indicated concentrations was changed log value and was applied simple linear regression. IC50 value was calculated by least squares method.

[2] = system: Stretching responses in mice; experiment: Stretching test (acetic acid i.p.); type: in vivo, Male ddY mice; conditions: 10 mg/Kg orally, acetic acid i.p. 1 h after drug
Description: Male ddY mice were used after a 24 h fast. Drugs were orally administered to groups of 10 mice. Mice were injected intraperitoneally (i.p.) with 0.2 ml/10 g of 0.6% acetic acid 1 h after the drug administration and then placed singly in a plastic animal cage. Stretching responses, defined as constriction of the abdomen with stretching of the hind limbs, were counted for 10 min from 3 min after the i.p. injection of acetic acid.

[3] = system: Adjuvant Arthritis in Rats; experiment: Analgesic activity: effect on adjuvant arthritis in rats (Randall-Selitto); type: in vivo, Lewis rats; conditions: ratio of threshold pressure of treated vs non-treated rats
[4] = LPS 24 hr, read-out: COX-II IC50
[5] = 1 hr at 37° C., read-out: COX-I IC50

T2 sequence (P23219 24-599): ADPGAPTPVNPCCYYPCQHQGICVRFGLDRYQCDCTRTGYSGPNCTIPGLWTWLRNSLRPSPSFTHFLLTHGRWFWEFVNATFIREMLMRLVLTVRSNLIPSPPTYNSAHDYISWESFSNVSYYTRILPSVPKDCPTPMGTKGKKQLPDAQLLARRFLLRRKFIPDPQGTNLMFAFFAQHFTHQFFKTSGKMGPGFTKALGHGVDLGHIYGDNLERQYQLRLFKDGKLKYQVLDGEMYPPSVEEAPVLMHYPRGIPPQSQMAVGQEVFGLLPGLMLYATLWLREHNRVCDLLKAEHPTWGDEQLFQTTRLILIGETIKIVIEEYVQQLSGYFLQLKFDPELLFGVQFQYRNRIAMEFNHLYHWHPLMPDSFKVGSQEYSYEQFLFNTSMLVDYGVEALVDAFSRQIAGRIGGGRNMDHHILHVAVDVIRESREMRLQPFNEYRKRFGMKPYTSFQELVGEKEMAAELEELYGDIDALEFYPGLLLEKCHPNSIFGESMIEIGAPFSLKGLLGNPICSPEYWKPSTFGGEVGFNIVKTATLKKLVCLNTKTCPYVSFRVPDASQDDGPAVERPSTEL

IC50 (COX-II; [4]) [µM]	IC50 (COX-I; [5]) [µM]	Structure (SMILES)	Gastric ulcerogenic activity (Non-toxic dose) [1] [mg/kg]	further results
		CC(C(=O)O)c1cccc(C(=O)c2ccccc2)c1 (centres unmarked) [G, Ketoprofen]	3.2	
		COc1ccc2c(c1)c(CC(=O)O)c(C)n2C(=O)c1ccc(Cl)cc1 [I, Indomethacin]	1	
> 1	< 0.1	COc1ccc(-c2cc(C#N)c(Cl)nc2-c2ccc(OC)cc2)cc1 [Example 1-(3), 2-chloro-5-(4-methoxyphenyl)-6-(4-methoxyphenyl) pyridine-3-carbonitrile]		
		O=C(O)Cc1ccccc1Nc1c(Cl)cccc1Cl [J, Diclofenac]	3.2	
> 1	< 0.1	COc1ccc(-c2cc(C#N)c(OC)nc2-c2ccc(OC)cc2)cc1 [Example 6, 2-methoxy-5-(4-methoxyphenyl)-6-(4-methoxyphenyl)-pyridine-3-carbonitrile]		
		COc1ccc(-c2noc(CC(=O)O)c2-c2ccc(OC)cc2)cc1 [H, Mofezolac]	10	

Structure (SMILES)	IC50 (COX-II; [4]) [µM]	IC50 (COX-I; [5]) [µM]	Gastric ulcerogenic activity (Non-toxic dose) [1] [mg/kg]	further results
COc1ccc(-c2cc(C#N)cnc2-c2ccc(OC)cc2)cc1 [Example 4, 5-(4-methoxyphenyl)-6-(4-methoxyphenyl)-pyridine-3-carbonitrile]	> 1	< 0.1	>100	IC50 (COX-II; Table 1, read-out: Whole blood assay (IC50: μM) COX-II): 1.9 µM; IC50 (COX-I; Table 1, read-out: Whole blood assay (IC50: μM) COX-I): 0.017 µM; Inhibiting activity in stretching test [2]: 48%; melting point: 107 to 108 °C; Analgesic activity in adjuvant arthritis -3.2 mg/Kg- ([3]; 3.2 mg/Kg, 2 hr after administration): 1.57; The coefficient of analgesic ([3]; Dose 3.2 mg/kg, pain threshold 2 hr after administration, ratio of 1.5 = effective dose): >1.5
